According to the supplement of paper PMC11208160:

Assay: recombinant barcode read abundance after kanamycin selection (control-corrected) (log10(CPM+1)); higher = more efficient recombination; sequences stand for … in AGTGCAGAGAAAATCGGCCAGTTTTCTCTGCCTGCAGTCCGCATGCCGT…AGATTTATGCAGCGGACTGCCTTTCTCCCAAAGTGATAAACCGGACAGTATCATGGACCGGTTTTCCCGGTAATCCGTATTTGCAAGGTTGGTTTCACT; site = the 11-nt target
Method: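 Pooled E. coli target-specificity screen for the IS621 bridge recombinase. Each library plasmid pairs an 11-nt target (CT core) with a bridge RNA whose target-binding loop (9-nt LTG + 4-nt RTG) is reprogrammed; the rest of the 177-nt WT IS621 bridge RNA scaffold is fixed. The plasmid is co-electroporated with a WT donor plasmid; recombinase is induced with 0.1 mM IPTG and recombinants are selected on kanamycin. Recombinant barcodes are sequenced, converted to CPM, averaged over two biological replicates and corrected by the unselected control CPM. Molecule = full bridge RNA written as DNA: LTG = specificity nt 1-9, RTG = reverse complement of specificity nt 8-11, in the WT scaffold.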
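Also: IS621 recombinase and bridge RNA in Escherichia coli cells.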

Sequence | recombinant barcode read abundance (log10)
ACTCACCCTTGGGTTCTAACCTGTTGCGG (site CTATTAACTTA) | 0.126
ACTCCGTCTTGGGTTCTAACCTGTTGCCT (site ACTCCGTCTAG) | 1.28
ACTCCGTCTTGGGTTCTAACCTGTTGCCT (site ACTGCGTCTAG) | 0.109
ACTCGATCTTGGGTTCTAACCTGTTGCCT (site ACTCGATCTAG) | 0.595
ACTCGATCTTGGGTTCTAACCTGTTGCCT (site AGTCGATCTAA) | 0.0189
ACTCGGCCTTGGGTTCTAACCTGTTGCCT (site ACTCGGCCTAC) | 0.0497
ACTCGGCCTTGGGTTCTAACCTGTTGCCT (site ACTCGGCCTAG) | 1.45
ACTCGTCCTTGGGTTCTAACCTGTTGCTA (site ACTCGTCCTTA) | 0.584
ACTCGTCCTTGGGTTCTAACCTGTTGCTA (site GAGAAGACTAC) | 0.0362
ACTGATACTTGGGTTCTAACCTGTTGCCT (site ACTGATACTAG) | 1.84
ACTGATACTTGGGTTCTAACCTGTTGCCT (site ACTGATCCTAG) | 0.0466
ACTGATACTTGGGTTCTAACCTGTTGCCT (site ACTGATGCTAG) | 0.313
ACTGATACTTGGGTTCTAACCTGTTGCCT (site ACTGATTCTAG) | 0.241
ACTGATCCTTGGGTTCTAACCTGTTGCAT (site ACTGATCCTAT) | 2.35
ACTGATCCTTGGGTTCTAACCTGTTGCAT (site TTCTTAACTCC) | 0.00751
ACTGATCCTTGGGTTCTAACCTGTTGCCT (site ACTGATACTAG) | 0.00756
ACTGATCCTTGGGTTCTAACCTGTTGCCT (site ACTGATCCTAG) | 2.1
ACTGATCCTTGGGTTCTAACCTGTTGCCT (site ACTGATGCTAG) | 0.671

Sequence | recombinant barcode read abundance (log10)
ACTGATCCTTGGGTTCTAACCTGTTGCCT (site ACTGATTCTAG) | 0.0263
ACTGGGTCTTGGGTTCTAACCTGTTGCGT (site ACATGGTCTAC) | 0.254
ACTGGGTCTTGGGTTCTAACCTGTTGCGT (site ACTGGGTCTAC) | 2.66
ACTGGGTCTTGGGTTCTAACCTGTTGCTT (site ACTGAGTCTAA) | 0.782
ACTGGGTCTTGGGTTCTAACCTGTTGCTT (site ACTGGGTCTAA) | 1.41
ACTGGTACTTGGGTTCTAACCTGTTGCCT (site ACGGGTACTAG) | 0.161
ACTGGTACTTGGGTTCTAACCTGTTGCCT (site ACTGGTACTAG) | 1.22
ACTGGTCCTTGGGTTCTAACCTGTTGCGG (site ACTGGTCCTCC) | 2.93
ACTGGTCCTTGGGTTCTAACCTGTTGCGG (site GACATATCTAA) | 0.0953
ACTTAGACTTGGGTTCTAACCTGTTGCCA (site ACTTAGACTAG) | 0.502
ACTTAGACTTGGGTTCTAACCTGTTGCCA (site ACTTAGACTCG) | 0.408
ACTTAGACTTGGGTTCTAACCTGTTGCCA (site ACTTAGACTGG) | 0.0414
ACTTAGACTTGGGTTCTAACCTGTTGCCA (site ACTTAGACTTG) | 0.363
ACTTAGACTTGGGTTCTAACCTGTTGCCG (site ACTTAGACTAG) | 0.287
ACTTAGACTTGGGTTCTAACCTGTTGCCG (site ACTTAGACTCG) | 1.29
ACTTAGACTTGGGTTCTAACCTGTTGCCG (site ACTTAGACTGG) | 0.159
ACTTAGACTTGGGTTCTAACCTGTTGCCG (site ACTTAGACTTG) | 0.129
ACTTAGTCTTGGGTTCTAACCTGTTGCTA (site ACATAGTCTCA) | 0.178
